Experimental data taken from ChEMBL document CHEMBL4483862, “Open-source discovery of chemical leads for next-generation chemoprotective antimalarials” (2018).

System: Plasmodium berghei
Assay: Luciferase/luciferin-expressing antifolate-resistant parasites were used to infect a culture of HepG2 cells that were pre-incubated with compounds. Infected hepatocytes emit light due to the luciferase reaction. Assay results are presented as the percent inhibition of light emission compared to control. […]
Assay type: functional
Settings: sporozoite; for IC90: read-out: LUCIFERASE INFECTION ASSAY - IC90
[1] = read-out: LUCIFERASE INFECTION ASSAY - IC50

CC(=O)c1c(C)[nH]c(C(=O)OCCOc2ccccc2)c1C
IC50 (PBLUC_HILL_SLOPE 1.04, PBLUC_R_SQUARED 0.638, read-out: LUCIFERASE INFECTION ASSAY - IC50): 1.81 µM
IC90: > 10 µM

CC(=O)c1ccc(-c2ccc(C(=O)N3CCC(c4nc5ccccc5o4)CC3)o2)cc1
IC50 (HEPG2TOX_HILL_SLOPE 6.21, HEPG2TOX_R_SQUARED 0.873, read-out: LUCIFERASE INFECTION ASSAY - IC50): > 10 µM
IC90: > 10 µM

O=C(Nc1ccccc1)c1cc2sccc2s1
IC50 (HEPG2TOX_HILL_SLOPE 6.8, HEPG2TOX_R_SQUARED 0.21, read-out: LUCIFERASE INFECTION ASSAY - IC50): > 12.7 µM
IC90: > 12.7 µM

COc1ccc2c(C)cc3nnc(SCC(=O)NCC45CC6CC(CC(C6)C4)C5)n3c2c1
IC50 (HEPG2TOX_HILL_SLOPE 7.95, HEPG2TOX_R_SQUARED 0.512, PBLUC_HILL_SLOPE 13.7, PBLUC_R_SQUARED 0.353, read-out: LUCIFERASE INFECTION ASSAY - IC50): 8.94 µM
IC90: > 10 µM

Cc1cc(O)c(/C=N/Nc2ncc(C(F)(F)F)cc2Cl)c(=O)o1
IC50 (HEPG2TOX_HILL_SLOPE 2.38, HEPG2TOX_R_SQUARED 0.982, PBLUC_HILL_SLOPE 7.99, PBLUC_R_SQUARED 0.344, read-out: LUCIFERASE INFECTION ASSAY - IC50): 7.73 µM
IC90: > 9.49 µM

C=CCn1c(SCC(=O)Nc2nnc(-c3ccccc3)o2)nc2cc(Cl)ccc2c1=O
IC50 [1]: > 10 µM
IC90: > 10 µM

O=C(C1CC(=O)N(c2ccccc2F)C1)N1CCN(c2ccc(C(F)(F)F)cn2)CC1 (stereo not given)
IC50 [1]: > 10 µM
IC90: > 10 µM

CC1CC(C)CN(Cc2ccc(C(=O)Nc3ccccc3)cc2)C1 (stereo not given)
IC50 (HEPG2TOX_HILL_SLOPE 11.8, HEPG2TOX_R_SQUARED 0.877, PBLUC_HILL_SLOPE 2.66, PBLUC_R_SQUARED 0.557, read-out: LUCIFERASE INFECTION ASSAY - IC50): 3.28 µM
IC90: 7.47 µM

O=C1/C(=C/c2ccc(F)cc2)COC/C1=C\c1ccc(F)cc1
IC50 (HEPG2TOX_HILL_SLOPE 8.86, HEPG2TOX_R_SQUARED 0.951, read-out: LUCIFERASE INFECTION ASSAY - IC50): > 10.6 µM
IC90: > 10.6 µM

c1csc(-c2cn3c(-c4ccsc4)cnc3cn2)c1
IC50 (PBLUC_HILL_SLOPE 10.9, PBLUC_R_SQUARED 0.0923, read-out: LUCIFERASE INFECTION ASSAY - IC50): > 11.6 µM
IC90: > 11.6 µM

FC(F)(F)Oc1ccc(-c2ccc(OCCCc3ccccn3)nc2)cc1
IC50 (HEPG2TOX_HILL_SLOPE 2.06, HEPG2TOX_R_SQUARED 0.963, PBLUC_HILL_SLOPE 4.51, PBLUC_R_SQUARED 0.157, read-out: LUCIFERASE INFECTION ASSAY - IC50): 6.75 µM
IC90: > 8.82 µM

Cc1nn(CC(=O)Nc2cccc(C(F)(F)F)c2)c(C)c1Oc1ccccc1
IC50 [1]: 3.94 µM
IC90: 8.01 µM

CC(C)Cc1ccc(C(=O)CC(Sc2ccccc2N)c2ccc(Cl)cc2)cc1 (stereo not given)
IC50 [1]: 0.135 µM
IC90: 1.03 µM

CCOC(=O)c1cnn(-c2ccc(NC(=O)c3sc4nc5n(c(=O)c4c3C)CCC5)cc2)c1C
IC50 (HEPG2TOX_HILL_SLOPE 2.74, HEPG2TOX_R_SQUARED 0.98, PBLUC_HILL_SLOPE 1.74, PBLUC_R_SQUARED 0.848, read-out: LUCIFERASE INFECTION ASSAY - IC50): 0.838 µM
IC90: 2.97 µM

COC(=O)c1c(C)[nH]c(C(=O)C(C)Sc2nnc(Cc3cccc4ccccc34)n2C2CCCCC2)c1C (stereo not given)
IC50 (FFLUC_HILL_SLOPE 16.1, FFLUC_R_SQUARED 0.161, read-out: LUCIFERASE INFECTION ASSAY - IC50): > 10 µM
IC90: > 10 µM

COc1cccc(CC(=O)Nc2nc3ccc(C)cn3c2C(=O)NC2CCCC2)c1
IC50 [1]: > 8.12 µM
IC90: > 8.12 µM

Oc1c(Br)cc(Cl)cc1/C=N/NC(=S)NC1CC1
IC50 (PBLUC_HILL_SLOPE 2.42, PBLUC_R_SQUARED 0.376, read-out: LUCIFERASE INFECTION ASSAY - IC50): 4.15 µM
IC90: > 9.47 µM

O=C(NNC1c2ccccc2-c2ccccc21)c1ccccc1
IC50 [1]: 8.58 µM
IC90: > 10 µM

OC1CCN(c2ccnc3c(-c4ccc(Oc5ccccc5)cc4)cnn23)CC1
IC50 (HEPG2TOX_HILL_SLOPE 2.26, HEPG2TOX_R_SQUARED 0.638, PBLUC_HILL_SLOPE 2.48, PBLUC_R_SQUARED 0.699, read-out: LUCIFERASE INFECTION ASSAY - IC50): 2.98 µM
IC90: 7.21 µM

O=C(Nc1ccncc1)c1cc(Br)c(Br)s1
IC50 (PBLUC_HILL_SLOPE 0.742, PBLUC_R_SQUARED 0.564, read-out: LUCIFERASE INFECTION ASSAY - IC50): 4.29 µM
IC90: > 10 µM

COc1cccc(CN2CCc3c(c(C(=O)NCCCc4ccccc4)nn3Cc3ccncc3)C2)c1
IC50 (PBLUC_HILL_SLOPE 4.39, PBLUC_R_SQUARED 0.179, read-out: LUCIFERASE INFECTION ASSAY - IC50): 3.31 µM
IC90: 5.47 µM

CCCCOc1ccc(Nc2nc(C(N)CCc3ccccc3)cs2)nn1 (stereo not given)
IC50 [1]: > 8.6 µM
IC90: > 8.6 µM

O=C(NNC(=O)c1cc(-c2ccc(Cl)s2)nc2ccccc12)c1cnccn1
IC50 (HEPG2TOX_HILL_SLOPE 2.73, HEPG2TOX_R_SQUARED 0.802, PBLUC_HILL_SLOPE 17.7, PBLUC_R_SQUARED 0.568, read-out: LUCIFERASE INFECTION ASSAY - IC50): 1.12 µM
IC90: 1.27 µM

Fc1ccc(/N=c2\scc(-c3ccc4c(c3)OCCO4)n2C2CCCC2)cc1
IC50 (FFLUC_HILL_SLOPE 15, FFLUC_R_SQUARED 0.34, HEPG2TOX_HILL_SLOPE 7.4, HEPG2TOX_R_SQUARED 0.523, PBLUC_HILL_SLOPE 11.6, PBLUC_R_SQUARED 0.501, read-out: LUCIFERASE INFECTION ASSAY - IC50): 1.31 µM
IC90: 1.58 µM

COc1cccc(-c2nc3ccc(NC(=O)Nc4ccc(Cl)c(C(F)(F)F)c4)cn3n2)c1
IC50 (FFLUC_HILL_SLOPE 14.4, FFLUC_R_SQUARED 0.104, PBLUC_HILL_SLOPE 6.95, PBLUC_R_SQUARED 0.291, read-out: LUCIFERASE INFECTION ASSAY - IC50): 6.74 µM
IC90: 9.24 µM

CCCCOc1ccc(Nc2nc(C(N)Cc3ccc(OC)cc3)cs2)nn1 (stereo not given)
IC50 (PBLUC_HILL_SLOPE 10.9, PBLUC_R_SQUARED 0.27, read-out: LUCIFERASE INFECTION ASSAY - IC50): 3.08 µM
IC90: 3.76 µM

CCCNC(=O)/C(=C\c1cccc(Br)c1)c1nc2ccccc2[nH]1
IC50 (HEPG2TOX_HILL_SLOPE 11.6, HEPG2TOX_R_SQUARED 0.535, PBLUC_HILL_SLOPE 4.15, PBLUC_R_SQUARED 0.775, read-out: LUCIFERASE INFECTION ASSAY - IC50): 5.62 µM
IC90: 9.54 µM

CC1=NN(c2ccccc2)C(=O)/C1=C\c1cc(C)n(-c2cc(C(F)(F)F)ccc2Cl)c1C
IC50 (FFLUC_HILL_SLOPE 2.69, FFLUC_R_SQUARED 0.551, PBLUC_HILL_SLOPE 5.7, PBLUC_R_SQUARED 0.538, read-out: LUCIFERASE INFECTION ASSAY - IC50): 7.1 µM
IC90: > 10 µM

COc1cc(Br)cc(/C=N/NC(=S)NC(C)(C)C)c1O
IC50 (PBLUC_HILL_SLOPE 63.8, PBLUC_R_SQUARED 0.286, read-out: LUCIFERASE INFECTION ASSAY - IC50): 6.53 µM
IC90: 6.76 µM

COc1ccc(S(=O)(=O)NN(C)c2nc(C(F)(F)F)nc3ccccc23)cc1
IC50 (HEPG2TOX_HILL_SLOPE 2.85, HEPG2TOX_R_SQUARED 0.931, PBLUC_HILL_SLOPE 2.16, PBLUC_R_SQUARED 0.738, read-out: LUCIFERASE INFECTION ASSAY - IC50): 2.59 µM
IC90: 7.15 µM

CCC(C)(C)C1CCC(NC(=O)N(C)CC(=O)Nc2c(C)cccc2C)CC1 (stereo not given)
IC50 [1]: > 10 µM
IC90: > 10 µM

CC(C)c1ccc(N2C(=O)C=CC2=O)cc1
IC50 (HEPG2TOX_HILL_SLOPE 8.61, HEPG2TOX_R_SQUARED 0.25, PBLUC_HILL_SLOPE 3.82, PBLUC_R_SQUARED 0.327, read-out: LUCIFERASE INFECTION ASSAY - IC50): 9.69 µM
IC90: > 15.3 µM

CCCn1c(SCC(=O)Nc2cc(S(=O)(=O)N(CC)c3ccccc3)ccc2Cl)nc2ccccc2c1=O
IC50 (FFLUC_HILL_SLOPE 3.64, FFLUC_R_SQUARED 0.239, PBLUC_HILL_SLOPE 6.57, PBLUC_R_SQUARED 0.539, read-out: LUCIFERASE INFECTION ASSAY - IC50): 8.45 µM
IC90: > 10 µM

COc1ccc(NC(=O)c2cccc(C3(CNc4ccccc4)CC3)c2)cn1
IC50 [1]: > 10 µM
IC90: > 10 µM

COCc1[nH]n2c3cccc(=O)c-3nnc2c1-c1ccccc1
IC50 (HEPG2TOX_HILL_SLOPE 2.72, HEPG2TOX_R_SQUARED 0.697, PBLUC_HILL_SLOPE 5.05, PBLUC_R_SQUARED 0.588, read-out: LUCIFERASE INFECTION ASSAY - IC50): 5.34 µM
IC90: 8.25 µM

Cc1ccc(-n2c(C)cc(-c3csc(NC(=O)c4cccc(S(=O)(=O)N5CCc6ccccc65)c4)n3)c2C)cc1
IC50 (FFLUC_HILL_SLOPE 15.8, FFLUC_R_SQUARED 0.357, read-out: LUCIFERASE INFECTION ASSAY - IC50): > 10 µM
IC90: > 10 µM

N#C/C(=C\c1ccc(Cl)cc1Cl)c1ccc(O)cc1
IC50 (HEPG2TOX_HILL_SLOPE 4.92, HEPG2TOX_R_SQUARED 0.97, PBLUC_HILL_SLOPE 12.5, PBLUC_R_SQUARED 0.376, read-out: LUCIFERASE INFECTION ASSAY - IC50): 10.5 µM
IC90: > 11.4 µM

CCNc1nnc(SC(C)C(=O)Nc2ccc(OC(F)F)cc2)s1 (stereo not given)
IC50 [1]: > 10 µM
IC90: > 10 µM

CSc1sc(Cl)c2c1/C(=N\O)CC(C)(C)C2
IC50 [1]: > 12 µM
IC90: > 12 µM

CNc1nnc(Sc2nc(CN3CCCCC3)nc3scc(-c4ccccc4)c23)s1
IC50 (HEPG2TOX_HILL_SLOPE 0.991, HEPG2TOX_R_SQUARED 0.829, PBLUC_HILL_SLOPE 15.5, PBLUC_R_SQUARED 0.389, read-out: LUCIFERASE INFECTION ASSAY - IC50): 3.19 µM
IC90: 3.67 µM
